Here are results for one molecule from article PMC7822819, “Discovery of a new class of integrin antibodies for fibrosis” (Scientific Reports, 2021).

For one experiment, the target named is human αvβ6 (Homo sapiens, UniProt P06756+P18564). Briefly: AlphaLISA integrin-ligand binding assay. The format is biochemical. Details: hαV 1 992; hβ6 1 709; made in house; host or cells: Expi293. The procedure: (§1) In the AlphaLISA integrin assays, we used a HEPES based buffer (25 mM HEPES pH 7.4, 137 mM NaCl, 1 mM MgCl2, 1 mM MnCl2, 2 mM CaCl2, 2.7 mM KCl, and 0.05% Tween-20). Optimal assay conditions were determined with a titration of the reagents for signal noise ratio (S/N), linear range, etc. For the respective integrins, we used the final concentrations described in Supplemental Table S3. Briefly, the testing antibody (8 μL) was added as a 4x (of Final testing concentration) solution in the HEPES buffer described previously into a 384w AlphaPlate (Perkin Elmer #6005350). Then the integrin and ligand were added sequentially as 8x (4 μL each). Plates were sealed and incubated at room temperature for 2 h. Then 4 × acceptor bead solution (8 μL) was added, and the plates were resealed and incubated at RT for 1 h. Finally, 4 × (8 μL) donor beads solution was added in a darkened room and incubated for 45 min at room temperature. Plates were read on the Envision (Perkin Elmer) in AlphaScreen mode within 3 h of donor bead addition.
human αvβ6, sequence (P06756 31-992): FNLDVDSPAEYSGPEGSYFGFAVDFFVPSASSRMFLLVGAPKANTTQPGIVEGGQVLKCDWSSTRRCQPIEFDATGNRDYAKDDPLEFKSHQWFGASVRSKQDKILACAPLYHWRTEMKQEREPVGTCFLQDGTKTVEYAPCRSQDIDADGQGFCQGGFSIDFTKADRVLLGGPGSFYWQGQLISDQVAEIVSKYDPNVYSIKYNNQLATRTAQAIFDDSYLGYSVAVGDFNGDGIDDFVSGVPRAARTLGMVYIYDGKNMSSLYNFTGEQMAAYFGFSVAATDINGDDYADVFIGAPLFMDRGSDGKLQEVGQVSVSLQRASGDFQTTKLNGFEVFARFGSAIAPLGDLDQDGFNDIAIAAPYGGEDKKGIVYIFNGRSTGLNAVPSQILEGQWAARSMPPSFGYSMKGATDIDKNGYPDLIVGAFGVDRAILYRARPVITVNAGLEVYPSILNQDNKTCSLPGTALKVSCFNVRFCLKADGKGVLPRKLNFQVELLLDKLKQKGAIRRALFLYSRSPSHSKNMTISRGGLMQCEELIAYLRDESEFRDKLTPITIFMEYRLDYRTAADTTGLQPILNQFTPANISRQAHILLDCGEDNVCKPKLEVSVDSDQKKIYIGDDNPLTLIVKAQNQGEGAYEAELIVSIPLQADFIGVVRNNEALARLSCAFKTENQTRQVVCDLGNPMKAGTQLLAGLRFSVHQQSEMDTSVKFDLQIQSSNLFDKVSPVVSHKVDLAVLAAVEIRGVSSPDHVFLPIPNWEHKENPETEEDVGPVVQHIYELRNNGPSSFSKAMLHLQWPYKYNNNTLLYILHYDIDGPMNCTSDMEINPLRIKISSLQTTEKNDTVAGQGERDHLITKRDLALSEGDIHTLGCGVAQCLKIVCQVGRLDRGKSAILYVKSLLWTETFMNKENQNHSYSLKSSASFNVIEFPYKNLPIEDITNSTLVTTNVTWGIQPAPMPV
human αvβ6, sequence (P18564 22-709): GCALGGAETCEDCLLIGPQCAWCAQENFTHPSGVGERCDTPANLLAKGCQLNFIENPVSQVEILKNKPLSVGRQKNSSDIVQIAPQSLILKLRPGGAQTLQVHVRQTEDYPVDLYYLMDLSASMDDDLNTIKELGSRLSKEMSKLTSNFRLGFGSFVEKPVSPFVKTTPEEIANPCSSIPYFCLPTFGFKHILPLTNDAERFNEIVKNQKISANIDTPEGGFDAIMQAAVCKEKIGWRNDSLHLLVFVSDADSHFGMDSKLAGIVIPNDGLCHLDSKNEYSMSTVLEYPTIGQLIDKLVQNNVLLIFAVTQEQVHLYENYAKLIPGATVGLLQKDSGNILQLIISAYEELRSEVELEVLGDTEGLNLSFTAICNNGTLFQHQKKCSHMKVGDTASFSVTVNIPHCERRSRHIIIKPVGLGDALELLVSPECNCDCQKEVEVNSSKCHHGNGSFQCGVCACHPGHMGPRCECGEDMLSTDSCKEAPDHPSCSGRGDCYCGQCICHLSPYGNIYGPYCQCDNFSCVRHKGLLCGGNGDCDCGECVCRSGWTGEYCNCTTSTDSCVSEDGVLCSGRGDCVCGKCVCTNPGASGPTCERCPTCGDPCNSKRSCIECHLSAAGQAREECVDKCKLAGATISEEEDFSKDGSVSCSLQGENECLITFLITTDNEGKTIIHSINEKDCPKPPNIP
(§2) Supplemental Table S3. integrin AlphaLIS A assay reagents and conditions Human A l phal i sa Inte gri n A ssays: Fi nal Condi ti ons […]
(§3) ( batch de pe nde nt) anti body A l phaLi sa A cce ptor havb1 1. 4 nM 1. 0 nMα - Fi brone cti n human Fi brone cti n n/a A cce ptor be ads/ Pe rki n 10. 0 ug/ m 10. 0 ug/ m […]
(§4) havb3 3. 0 nM 10. […]

Another experiment addresses T1, mouse αvβ3 (Mus musculus, UniProt O54890+P43406).
T1 construct: mαV 1 988; m β3 1 717; made in house; host or cells: Expi293
The experiment can be described thus: AlphaLISA integrin-ligand binding assay. It counts as biochemical. The conditions noted are these: Fig. 4B; read-out: IC50 Mouse integrin AlphaLISA assays: mαvβ3. How it is done: as §1, §2, §3
(§5) havb3 3. 0 nM 10. 0 nMhuman V i trone cti n- GST α - GS T A cce p t o r ug/ m Stre ptavi di n Donor ug/ m tagge d n/a be ads/ Pe rki n 15. 0 l be ads/ Pe rki n El me r 15. 0 l […]
(§6) havb6 0. 1 nM 0. 5 nM 3. […]
(§7) Mouse A l phal i sa Inte gri n A ssays: Fi nal Condi ti ons […]
(§8) m aV b 1 4. 3 nM 1. 0 nMmouse f i brone cti n A bcam α - Fi brone cti n ( Rabbi t […]
(§9) 0 nM 5. […] 0nM be ads/ Pe rki n El me r […]
(§10) m aV b 6 1. 4 nM 2. 5 nMmouse LA P- 6Hi s α - 6x HI S / P e rk i n El m e r ug/ m ug/ m m aV b 8 1. 0 nM 2. 5 nMChe mpartne rn/a( A L 128) 15 l 15 l

The next experiment addresses T2, human α5β1 (Homo sapiens, UniProt P05556+P08648).
T2 construct: hα5 1 995; hβ1 1 728; made in house; host or cells: Expi293
The experiment can be described thus: AlphaLISA integrin-ligand binding assay. The format is biochemical. How it is done:
as §1, §2, §3, §5, §6, §7, §8, §9, §10

Experiment [1] has as its system normal human lung fibroblasts. The experiment can be described thus: TGFβ-induced αSMA high-content imaging. The format is cell-based. The conditions noted are these: 10 μM, 30 min pre-treatment, TGFβ 5 ng/mL, 48 h. The procedure:
(§11) Normal human lung fibroblasts (Lonza) and Primary Human IPF Lung Parenchymal Fibroblasts (Donor2) (BioIVT, #PCR-70-0214) were incubated at 37 °C and 5% CO2. To induce fibrotic response in primary cells, a final concentration of 5 ng/ml of recombinant human TGFβ1 (BioLegend, #580702) was added to the culture media and treated for 24 ~ 48 h. Anti-TGFβ neutralizing antibody (1D11) and the isotype control mouse IgG1 were from BioXcell. SB-525334 and bleomycin were from Sigma. MK-0429 was synthesized by Merck & Co., Inc., Kenilworth, NJ, USA. CHOK1-integrin stable lines were cultured in DMEM/F12, Glutamax (Gibco #10565018), 10% FBS (Gibco 310091148), 1 × Pen/Strep (Gibco 315140-148), and 6 ug/mL Puromycin (Gibco #A1113803).
(§12) Primary cells (passage 3–5) were grown on Cell carrier Ultra, col1 coated 96-well plates (Perkin Elmer, #6055700) at a density of 25,000 cells/well. Once the cells adhere, they were starved in serum free media for 24 h followed by addition of treatments i.e. 5 ng/mL TGFβ (Biolegend #580702) ± inhibitors. Cells were pre-treated with inhibitors for 30 min prior to the addition of TGFβ stimulation. 48hours post treatment, the cells were fixed in 4% methanol free paraformaldehyde (ThermoFisher Scientific #28908) for 20 min at room temperature and incubated with anti-alpha smooth muscle Actin antibody (Abcam #ab7817) at 1:4000 overnight at 4 °C. […]

Another experiment addresses human αvβ1 (Homo sapiens, UniProt P05556+P06756). Briefly: AlphaLISA integrin-ligand binding assay. On the set-up: hαV 1 992; hβ1 1 728; made in house; host or cells: Expi293. The format is biochemical. The procedure:
as §1, §2, §3, §4

The target in a further experiment is T3, mouse αvβ6 (Mus musculus, UniProt P43406+Q9Z0T9).
T3 construct: expressed in transfected cells
Briefly: Latent TGFβ activation assay (TMLC / CHOK1-integrin co-culture, PAI-1 luciferase). The format is cell-based. The conditions noted are these: in words. The procedure: Transfected mink lung epithelial cell (TMLC) cell line containing the TGFβ responsive PAI-1 promoter driving luciferase expression[29] and the CHO-K1 human and mouse αvβx integrin cell lines were grown under optimized growth conditions to 90% confluency. TMLC cells were trypsinized and plated at 25,000 cells/well in 50 μL in Costar clear bottom white walled plates. In a separate plate, 25 μL of serially diluted antibodies at 4X concentration were added to wells containing 25 μL of either 25,000 cells of human or mouse αvβx cells. After a brief mixing, the 50 μL mixture was transferred to the TMLC cell plates for a total volume of 100 μL and incubated at 37 °C for 16 h. 100 μL of ONE-Glo kit (#PRE6120) was added to each well and read after 3–5 min on the Envision plate reader.

In experiment [2] the test system is IPF patient lung fibroblasts. The experiment can be described thus: TGFβ-induced αSMA high-content imaging. The conditions noted are these: even at 10 μM. It counts as cell-based, human. How it is done:
as §11, §12

pIC50: −log10 of the molar value. Read-outs that look alike come from different tables or passages of the source.

T2 sequence (P08648 42-995): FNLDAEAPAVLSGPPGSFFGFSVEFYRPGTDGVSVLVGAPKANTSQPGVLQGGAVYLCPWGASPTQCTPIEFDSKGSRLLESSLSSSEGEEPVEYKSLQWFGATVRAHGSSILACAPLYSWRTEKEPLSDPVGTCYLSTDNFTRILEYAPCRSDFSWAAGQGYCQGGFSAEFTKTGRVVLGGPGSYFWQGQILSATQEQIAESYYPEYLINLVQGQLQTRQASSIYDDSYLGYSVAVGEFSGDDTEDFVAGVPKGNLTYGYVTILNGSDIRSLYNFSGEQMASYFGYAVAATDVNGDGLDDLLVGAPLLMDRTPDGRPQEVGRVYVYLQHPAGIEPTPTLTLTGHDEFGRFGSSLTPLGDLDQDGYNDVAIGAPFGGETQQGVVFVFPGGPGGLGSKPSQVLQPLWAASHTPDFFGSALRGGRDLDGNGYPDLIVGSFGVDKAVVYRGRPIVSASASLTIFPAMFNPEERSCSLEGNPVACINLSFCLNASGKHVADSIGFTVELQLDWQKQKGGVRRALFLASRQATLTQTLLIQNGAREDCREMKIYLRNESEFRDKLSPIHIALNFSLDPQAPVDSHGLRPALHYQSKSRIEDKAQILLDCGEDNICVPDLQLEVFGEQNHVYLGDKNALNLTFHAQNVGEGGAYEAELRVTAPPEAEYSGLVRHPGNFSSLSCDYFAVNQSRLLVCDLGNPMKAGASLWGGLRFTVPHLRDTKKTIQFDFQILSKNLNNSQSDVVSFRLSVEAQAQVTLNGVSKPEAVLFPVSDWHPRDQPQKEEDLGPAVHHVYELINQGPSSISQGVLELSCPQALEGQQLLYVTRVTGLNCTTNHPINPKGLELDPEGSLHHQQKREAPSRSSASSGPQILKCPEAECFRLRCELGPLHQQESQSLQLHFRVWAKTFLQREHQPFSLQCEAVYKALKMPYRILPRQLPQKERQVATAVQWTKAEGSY
T2 sequence (P05556 21-728): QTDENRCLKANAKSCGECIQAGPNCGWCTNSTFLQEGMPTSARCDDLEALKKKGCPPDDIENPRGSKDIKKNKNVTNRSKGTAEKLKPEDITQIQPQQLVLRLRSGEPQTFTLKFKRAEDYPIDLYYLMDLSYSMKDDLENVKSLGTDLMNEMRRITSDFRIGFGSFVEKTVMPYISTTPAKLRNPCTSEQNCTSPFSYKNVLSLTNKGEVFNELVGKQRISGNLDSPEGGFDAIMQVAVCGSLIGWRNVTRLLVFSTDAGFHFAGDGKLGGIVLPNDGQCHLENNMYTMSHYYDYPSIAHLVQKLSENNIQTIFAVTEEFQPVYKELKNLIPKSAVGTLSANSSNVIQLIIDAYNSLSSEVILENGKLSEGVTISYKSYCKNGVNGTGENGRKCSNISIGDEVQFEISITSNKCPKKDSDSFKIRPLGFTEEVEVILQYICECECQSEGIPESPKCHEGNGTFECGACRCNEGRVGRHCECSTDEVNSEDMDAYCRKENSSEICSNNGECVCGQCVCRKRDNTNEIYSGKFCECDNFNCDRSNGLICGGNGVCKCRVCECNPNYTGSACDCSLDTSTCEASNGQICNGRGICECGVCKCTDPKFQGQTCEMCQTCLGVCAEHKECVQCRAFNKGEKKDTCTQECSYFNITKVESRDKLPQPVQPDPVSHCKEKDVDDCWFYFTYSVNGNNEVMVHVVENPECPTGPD
human αvβ1, sequence (P06756 31-992): as the sequence (P06756 31-992) above
human αvβ1, sequence (P05556 21-728): as the sequence (P05556 21-728) above
T1 sequence (P43406 31-988): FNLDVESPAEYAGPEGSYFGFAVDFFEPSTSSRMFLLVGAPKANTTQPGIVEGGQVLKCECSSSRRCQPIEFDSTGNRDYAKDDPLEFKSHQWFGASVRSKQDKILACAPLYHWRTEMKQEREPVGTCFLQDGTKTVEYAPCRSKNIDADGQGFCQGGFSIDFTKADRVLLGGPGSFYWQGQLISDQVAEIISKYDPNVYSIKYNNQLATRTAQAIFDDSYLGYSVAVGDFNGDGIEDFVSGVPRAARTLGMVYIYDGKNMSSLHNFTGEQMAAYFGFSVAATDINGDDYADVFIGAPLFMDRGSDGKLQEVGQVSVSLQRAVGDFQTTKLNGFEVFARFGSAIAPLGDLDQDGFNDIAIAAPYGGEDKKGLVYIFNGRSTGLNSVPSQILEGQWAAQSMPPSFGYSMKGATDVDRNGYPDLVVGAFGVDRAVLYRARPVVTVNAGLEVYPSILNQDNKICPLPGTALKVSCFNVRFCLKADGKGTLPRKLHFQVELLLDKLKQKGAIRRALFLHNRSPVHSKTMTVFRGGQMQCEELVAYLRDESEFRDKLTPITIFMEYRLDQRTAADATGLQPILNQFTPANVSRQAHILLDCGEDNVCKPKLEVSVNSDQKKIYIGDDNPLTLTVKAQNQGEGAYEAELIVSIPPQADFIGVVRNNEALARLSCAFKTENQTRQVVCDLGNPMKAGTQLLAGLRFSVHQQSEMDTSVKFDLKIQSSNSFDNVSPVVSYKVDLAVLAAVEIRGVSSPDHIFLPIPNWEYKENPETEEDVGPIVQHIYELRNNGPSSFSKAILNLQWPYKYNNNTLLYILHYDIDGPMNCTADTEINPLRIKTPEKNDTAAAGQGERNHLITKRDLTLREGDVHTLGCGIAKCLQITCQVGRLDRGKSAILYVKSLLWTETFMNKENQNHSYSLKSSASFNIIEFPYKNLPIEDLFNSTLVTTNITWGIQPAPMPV
T1 sequence (O54890 26-717): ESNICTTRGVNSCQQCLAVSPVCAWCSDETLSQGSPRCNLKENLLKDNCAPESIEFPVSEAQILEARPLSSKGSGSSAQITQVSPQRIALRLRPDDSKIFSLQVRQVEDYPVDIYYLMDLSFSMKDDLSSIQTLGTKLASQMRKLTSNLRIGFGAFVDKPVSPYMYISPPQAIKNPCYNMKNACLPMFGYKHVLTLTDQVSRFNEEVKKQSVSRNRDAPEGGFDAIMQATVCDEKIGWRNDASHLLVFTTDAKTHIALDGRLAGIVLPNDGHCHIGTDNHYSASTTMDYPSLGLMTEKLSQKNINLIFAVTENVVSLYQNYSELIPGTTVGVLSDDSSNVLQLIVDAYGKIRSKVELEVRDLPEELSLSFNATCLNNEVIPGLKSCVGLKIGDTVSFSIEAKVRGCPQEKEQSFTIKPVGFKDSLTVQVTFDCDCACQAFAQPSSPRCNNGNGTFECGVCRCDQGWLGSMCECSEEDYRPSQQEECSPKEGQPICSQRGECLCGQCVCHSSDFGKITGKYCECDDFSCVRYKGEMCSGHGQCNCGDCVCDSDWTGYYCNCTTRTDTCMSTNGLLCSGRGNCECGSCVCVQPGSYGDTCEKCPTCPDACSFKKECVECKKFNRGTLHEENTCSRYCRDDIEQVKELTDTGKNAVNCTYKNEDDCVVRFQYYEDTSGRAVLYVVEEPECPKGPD

As to `COc1ccc(C(CC(=O)O)N2CCN(CCCc3ccc4c(n3)NCCC4)C2=O)cn1` (stereo not shown) [MK-0429], the pIC50 is 8.42 on human αvβ6 (Fig. 3D, assay optimisation, read-out: IC50 human αvβ6 AlphaLISA); 9.30 at human αvβ6 (Fig. 4B, read-out: IC50 Human integrin AlphaLISA assays: hαvβ6); 9.05 at mouse αvβ3; 7.76 at human α5β1 (Fig. 3D, assay optimisation, read-out: IC50 human α5β1 AlphaLISA); 7.58 at human α5β1 (Fig. 4B, read-out: IC50 Human integrin AlphaLISA assays: hα5β1); 9.34 at human αvβ1 (Fig. 3D, assay optimisation, read-out: IC50 human αvβ1 AlphaLISA). The negative-log IC50 (pIC50) at human αvβ1 (Fig. 4B, read-out: IC50 Human integrin AlphaLISA assays: hαvβ1) was 9.00. In experiment [1], the “αSMA intensity and percentage of stimulated cells following TGFβ treatment” value is reported as “significantly reduced”. Further, the “Inhibition of latent TGFβ activation, mouse αvβ6 co-culture” value on mouse αvβ6 is recorded as “strong inhibitory effect”. Also, the “Inhibition of αSMA induction” value in experiment [2] is listed as “minimal activity”.
